Measurements from patent publication US8852629B2, “Drug delivery system for hydrophobic drugs” (Valeant Pharmaceuticals International, Inc., priority 2001, dated 2014).

Tests used:
[1] = storage stability (potency) of cryodesiccated MA composition; type: physicochemical; conditions: room temperature
Text: Once formulated, the MA of the invention may be freeze-dried for long-term storage if desired. […] If the composition is freeze-dried, it may be packed in vials for subsequent reconstitution with a suitable aqueous solution, such as sterile water or sterile water containing a saccharide and/or other suitable excipients, just prior to use. For example, reconstitution may be by simply adding water for injection just prior to administration.

[2] = lability in an aqueous environment; type: physicochemical; conditions: must be lyophilized for storage
Text: It has been a challenge to find suitable pharmaceutical formulations for hydrophobic polypyrrolic macrocyle based photosensitizers that can be filter sterilized and freeze dried, and can also be rapidly reconstituted in an aqueous medium prior to administration, while retaining a small particle size after rehydration. Photosensitive compounds such as verteporfin (BPD-MA) and QLT 0074 (EA6) must be lyophilized for storage, because they are labile in an aqueous environment.

## benzoporphyrin derivative monoacid ring A [BPD-MA]
[1]
  period over which potency was maintained: at least nine
[2]
  stability in an aqueous environment: labile
